# Where two headings read alike, the source gives them in different places.
# Assays:
# BACE1 = BACE1 (Homo sapiens, UniProt P56817); assay: In vitro enzymatic BACE FRET assay; assay type: biochemical
# Method: In Vitro Enzymatic BACE FRET (Fluorescence Resonance Energy Transfer) Assay
# Enzyme Assay Data in the Example Table I
# The assay buffer used in this screen is 0.05 M acetate, pH 4.2, 10% DMSO final, 100 uM genapol (which is a nonionic detergent, below its Critical Micelle Concentration). The Beta Secretase enzyme (0.2 nM) is pre-incubated for one hour with inhibitors, typically in about 1 uL of DMSO according to a serial dilution, are added thereto. This assay is effectively started by the addition of FRET substrate (50 nM) and the combination is incubated for one hour. The FRET assay is terminated with by addition of Tris buffer, which raises the pH to neutrality, and the fluorescence is determined. The FRET substrate is a peptide with commercially available fluorophore and quencher, on opposite sides of the BACE cleavage site. Proteolytic cleavage of the FRET substrate releases quenching of fluorescence (excitation 488 nm and […]).
# [1] = tested on: Aβ40 in conditioned medium of cells stably expressing Amyloid Precursor Protein (APP); assay: In vitro BACE cell-based assay (HEK cell assay, Aβ40 sandwich ELISA); conditions: Homo sapiens, HEK293
# Method: In Vitro BACE Cell-Based Assay
# The cell-based assay measures inhibition or reduction of Aβ40 in conditioned medium of test compound treated cells expressing amyloid precursor protein.
# Cells stably expressing Amyloid Precursor Protein (APP) were plated at a density of 40K cells/well in 96 well plates (Costar). The cells were cultivated for 24 hours at 37° C. and 5% CO2 in DMEM supplemented with 10% FBS. The test compounds were then added to cells in 10-point dose response concentrations with the starting concentration being either 100 μM or 10 μM. The compounds were diluted from stock solutions in DMSO and the final DMSO concentration of the test compounds on cells was 0.1%. After 24 h of incubation with the test compounds the supernatant conditioned media was collected and the Aβ 40 levels were determined using a sandwich ELISA. The IC50 of the compound was calculated from the percent of control or percent inhibition of Aβ 40 as a function of the concentration of the test compound.
# The sandwich ELISA to detect Aβ 40 was performed in 96 well microtiter plates, which were pre-treated with goat anti-rabbit IgG (Pierce). The capture and detecting antibody pair that were used to detect Aβ 40 from cell supernatants were affinity purified pAb40 (Biosource) and biotinylated 6E10 (Signet Labs Inc.), respectively. The optimal concentration for the pAb40 antibody was 3 μg/ml in Superblock/TBS (Pierce) that was supplemented with 0.05% Tween 20 (Sigma). Optimal concentration for the detection antibody 6E10-biotinylated was 0.5 μg/ml in Superblock/TBS (Pierce) that had been supplemented with 2% normal goat serum and 2% normal mouse serum.
# Cellular supernatants were incubated with the capture antibody for 3 h at 4° C., followed by 3 wash steps in TBS-tween (0.05%). The detecting antibody incubation was for 2 h at 4° C., again followed by the wash steps as described previously. The final readout of the ELISA is Time-Resolved Fluorescence (counts per minute) using Delfia reagents Streptavidin-Europium and Enhancement solutions (Perkin Elmer) and the Victor 2 multilabel counter (Perkin Elmer).
# Cathepsin D (Cat D) = target: T1, Cathepsin D (Cat D) (Homo sapiens, UniProt P07339); assay: In vitro enzymatic Cathepsin D (Cat D) FRET assay; assay type: biochemical; conditions: read-out: CatD IC50
# T1 construct: made in house; host or cells: CHO cells
# T1 sequence (P07339 65-412, species assumed): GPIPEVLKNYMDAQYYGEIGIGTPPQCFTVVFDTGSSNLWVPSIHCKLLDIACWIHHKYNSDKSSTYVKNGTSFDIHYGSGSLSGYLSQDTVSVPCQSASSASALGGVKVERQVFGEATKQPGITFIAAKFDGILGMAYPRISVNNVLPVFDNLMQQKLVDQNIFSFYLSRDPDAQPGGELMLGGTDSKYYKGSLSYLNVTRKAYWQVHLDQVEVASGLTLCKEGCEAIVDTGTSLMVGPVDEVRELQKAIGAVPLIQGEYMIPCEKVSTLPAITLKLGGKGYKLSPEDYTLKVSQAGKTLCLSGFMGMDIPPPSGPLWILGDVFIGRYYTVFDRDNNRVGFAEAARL
# Method: In Vitro Enzymatic Cathepsin D (Cat D) FRET (Fluorescence Resonance Energy Transfer) Assay
# Recombinant Cat D was expressed in CHO cells. The assay buffer for CathepsinD is 0.05 M citrate pH 3.5, 10% DMSO final, 5 mM CHAPS. The Cat D enzyme (9 nM) is pre-incubated for one hour with inhibitors, typically in about 1 uL of DMSO according to a serial dilution, is added thereto. The assays are effectively started by the addition of different FRET substrates (20 nM for Cat D) and the combination is incubated for one hour. The FRET assay is terminated with by addition of Tris buffer, which raises the pH to neutrality, and the fluorescence is determined. The FRET substrate is a peptide with commercially available fluorophore and quencher, on opposite sides of the BACE cleavage site. The Cat D substrate peptide sequence is based on sequence #1 of Table 1 from Gulnik et al. FEBS Letters v413 p 379-384 1997. Proteolytic cleavage of the FRET substrate releases quenching of fluorescence (Cat D excitation 500 nm and emission 580 nm). […]
# Where available, the in-vitro Cat D FRET assay data for each of the Examples, conducted by the first procedure, is provided in Tables 1 and 3. For example, the compound of example 28 has a Cat D IC50 value of >400 uM.
# [2] = average IC50, read-out: BACE1 Enzyme assay IC50
# [3] = average IC50, read-out: BACE1 cell assay IC50
# [4] = read-out: BACE1 FRET assay IC50
# [5] = Aβ40, 24 h incubation, read-out: HEK cell assay IC50
# Chain of BACE1 (P56817 46-501, species assumed): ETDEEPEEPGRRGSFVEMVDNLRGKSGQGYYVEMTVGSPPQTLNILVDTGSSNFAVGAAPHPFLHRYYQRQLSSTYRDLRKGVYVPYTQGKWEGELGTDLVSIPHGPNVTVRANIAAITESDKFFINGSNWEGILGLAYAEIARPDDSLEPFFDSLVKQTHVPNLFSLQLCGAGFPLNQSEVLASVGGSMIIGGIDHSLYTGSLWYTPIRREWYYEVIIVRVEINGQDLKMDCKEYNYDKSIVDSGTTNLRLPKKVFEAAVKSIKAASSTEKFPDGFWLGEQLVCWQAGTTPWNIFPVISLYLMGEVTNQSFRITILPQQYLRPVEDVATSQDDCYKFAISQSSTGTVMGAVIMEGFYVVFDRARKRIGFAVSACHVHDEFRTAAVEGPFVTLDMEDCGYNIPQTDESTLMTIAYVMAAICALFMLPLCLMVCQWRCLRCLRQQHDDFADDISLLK
SMILES,IC50 (BACE1; [2]) [µM],"IC50 [1, 3] [µM]","IC50 (Cathepsin D (Cat D); average IC50, first procedure) [µM]",IC50 (BACE1; [4]) [µM],"IC50 [1, 5] [µM]",IC50 (Cathepsin D (Cat D)) [µM]
"Cc1cc(C(F)(F)F)cnc1C(=O)Nc1ccc(F)c([C@@]2(CF)N=C(N)[C@@]3(C)CC[C@@H]2S3(=O)=O)c1 (single isomer, unassigned) [Example 114]",0.061,0.082,3460,–,–,–
"Cc1cc(C(F)(F)F)cnc1C(=O)Nc1ccc(F)c([C@@]2(CF)N=C(N)[C@]3(C)CC[C@H]2S3(=O)=O)c1 (single isomer, unassigned) [Example 116]",0.044,0.047,255,–,–,–
"COc1cnc(C(=O)Nc2ccc(F)c([C@@]3(CF)N=C(N)[C@@]4(C)CC[C@@H]3S4(=O)=O)c2)cn1 (single isomer, unassigned) [Example 120]",0.049,0.088,> 400,–,–,–
COc1cnc2c(Nc3ccc(F)c([C@@]4(C)N=C(N)[C@@H]5CCC[C@H]4S5(=O)=O)c3)nccc2n1 (stereo in doubt) [Example 19],–,–,–,0.323,0.179,1210
"COc1cnc2c(Nc3ccc(F)c([C@@]4(C)N=C(N)[C@@]5(C)CCC[C@@H]4S5(=O)=O)c3)nccc2n1 [Example 1, (1R,4R,5S)-2-Amino-4-(2-fluoro-5-((2-methoxypyrido[3,4-b]pyrazin-5-yl)amino)phenyl)-1,4-dimethyl-9-thia-3-azabicyclo[3.3.1]non-2-ene 9,9-dioxide]",–,–,–,0.037,0.057,45.8
"COc1cnc2c(Nc3ccc(F)c([C@@]4(C)N=C(N)[C@]5(C)CCC[C@H]4S5(=O)=O)c3)nccc2n1 [Example 2, (1S,4R,5R)-2-Amino-4-(2-fluoro-5-((2-methoxypyrido[3,4-b]pyrazin-5-yl)amino)phenyl)-1,4-dimethyl-9-thia-3-azabicyclo[3.3.1]non-2-ene 9,9-dioxide]",–,–,–,0.13,0.055,166
"Cc1cc(OC(F)F)cnc1C(=O)Nc1ccc(F)c([C@@]2(C)N=C(N)[C@]3(C)CCC[C@H]2S3(=O)=O)c1 [Example 6, N-(3-((1R,2R,5S)-4-Amino-2,5-dimethyl-9,9-dioxido-9-thia-3-azabicyclo[3.3.1]non-3-en-2-yl)-4-fluorophenyl)-5-(difluoromethoxy)-3-methylpicolinamide]",–,–,–,0.01,0.004,215
"Cc1cc(OC(F)F)cnc1C(=O)Nc1ccc(F)c([C@@]2(C)N=C(N)[C@]3(C)CCC[C@@]2(F)S3(=O)=O)c1 [Example 10, N-(3-((1R,2R,5S)-4-Amino-1-fluoro-2,5-dimethyl-9,9-dioxido-9-thia-3-azabicyclo[3.3.1]non-3-en-2-yl)-4-fluorophenyl)-5-(difluoromethoxy)-3-methylpicolinamide]",–,–,–,0.009,0.035,8.75
"Cc1cc(OC(F)F)cnc1C(=O)Nc1ccc(F)c([C@@]2(C)N=C(N)[C@@]3(C)CCC[C@]2(C)S3(=O)=O)c1 [Example 13, N-(3-((1S,2R,5R)-4-Amino-1,2,5-trimethyl-9,9-dioxido-9-thia-3-azabicyclo[3.3.1]non-3-en-2-yl)-4-fluorophenyl)-5-(difluoromethoxy)-3-methylpicolinamide]",–,–,–,0.013,0.006,8.64

# Continued by falling IC50 (BACE1; [4]), values first:
IC50 (BACE1; [2]) [µM],"IC50 [1, 3] [µM]","IC50 (Cathepsin D (Cat D); average IC50, first procedure) [µM]",IC50 (BACE1; [4]) [µM],"IC50 [1, 5] [µM]",IC50 (Cathepsin D (Cat D)) [µM],SMILES
–,–,–,0.007,0.02,270,"Cc1cc(Cl)cnc1C(=O)Nc1ccc(F)c([C@@]2(C)N=C(N)[C@]3(C)CCC[C@H]2S3(=O)=O)c1 [Example 4, N-(3-((1R,2R,5S)-4-Amino-2,5-dimethyl-9,9-dioxido-9-thia-3-azabicyclo[3.3.1]non-3-en-2-yl)-4-fluorophenyl)-5-chloro-3-methylpicolinamide]"
–,–,–,0.007,0.22,22.6,"Cc1cc(Cl)cnc1C(=O)Nc1ccc(F)c([C@@]2(C)N=C(N)[C@@]3(C)CCC[C@]2(F)S3(=O)=O)c1 [Example 7, N-(3-((1S,2R,5R)-4-Amino-1-fluoro-2,5-dimethyl-9,9-dioxido-9-thia-3-azabicyclo[3.3.1]non-3-en-2-yl)-4-fluorophenyl)-5-chloro-3-methylpicolinamide]"
–,–,–,0.007,0.149,19,"Cc1cc(OC(F)F)cnc1C(=O)Nc1ccc(F)c([C@@]2(C)N=C(N)[C@@]3(C)CCC[C@]2(F)S3(=O)=O)c1 [Example 9, N-(3-((1S,2R,5R)-4-Amino-1-fluoro-2,5-dimethyl-9,9-dioxido-9-thia-3-azabicyclo[3.3.1]non-3-en-2-yl)-4-fluorophenyl)-5-(difluoromethoxy)-3-methylpicolinamide]"
–,–,–,0.006,0.031,51.5,"Cc1cc(Cl)cnc1C(=O)Nc1ccc(F)c([C@@]2(C)N=C(N)[C@@]3(C)CCC[C@]2(C)S3(=O)=O)c1 [Example 11, N-(3-((1S,2R,5R)-4-Amino-1,2,5-trimethyl-9,9-dioxido-9-thia-3-azabicyclo[3.3.1]non-3-en-2-yl)-4-fluorophenyl)-5-chloro-3-methylpicolinamide]"
–,–,–,0.005,0.033,29.7,"Cc1cc(Cl)cnc1C(=O)Nc1ccc(F)c([C@@]2(C)N=C(N)[C@]3(C)CCC[C@@]2(C)S3(=O)=O)c1 [Example 12, N-(3-((1R,2R,5S)-4-Amino-1,2,5-trimethyl-9,9-dioxido-9-thia-3-azabicyclo[3.3.1]non-3-en-2-yl)-4-fluorophenyl)-5-chloro-3-methylpicolinamide]"
–,–,–,0.004,0.113,22.7,"Cc1cc(Cl)cnc1C(=O)Nc1ccc(F)c([C@@]2(C)N=C(N)[C@]3(C)CCC[C@@]2(F)S3(=O)=O)c1 [Example 8, N-(3-((1R,2R,5S)-4-Amino-1-fluoro-2,5-dimethyl-9,9-dioxido-9-thia-3-azabicyclo[3.3.1]non-3-en-2-yl)-4-fluorophenyl)-5-chloro-3-methylpicolinamide]"
–,–,–,0.003,0.004,105,"Cc1cc(OC(F)F)cnc1C(=O)Nc1ccc(F)c([C@@]2(C)N=C(N)[C@@]3(C)CCC[C@@H]2S3(=O)=O)c1 [Example 5, N-(3-((1S,2R,5R)-4-Amino-2,5-dimethyl-9,9-dioxido-9-thia-3-azabicyclo[3.3.1]non-3-en-2-yl)-4-fluorophenyl)-5-(difluoromethoxy)-3-methylpicolinamide]"
–,–,–,0.002,0.007,119,"Cc1cc(Cl)cnc1C(=O)Nc1ccc(F)c([C@@]2(C)N=C(N)[C@@]3(C)CCC[C@@H]2S3(=O)=O)c1 [Example 3, N-(3-((1S,2R,5R)-4-Amino-2,5-dimethyl-9,9-dioxido-9-thia-3-azabicyclo[3.3.1]non-3-en-2-yl)-4-fluorophenyl)-5-chloro-3-methylpicolinamide]"
